Measurements: patent US20260297542A1, “HERBICIDE RESISTANT PLANTS” (SYNGENTA CROP PROTECTION AG, priority 2023, published 2026)
Residue numbers refer to the chain shown, from its start.

Experiments:
[1] = biological target: T1, AtPPO1 S305L Y426V L479M (SEQ ID NO.131) (Arabidopsis thaliana, UniProt P55826, L479M/S305L/Y426V); assay: fluorescent Protoporphyrinogen Oxidase assay, crude extract; format: biochemical; details: read-out: percentage inhibition
T1 construct: made in house; host or cells: E. coli BL21 (DE3) hemG, crude extract
T1 sequence (P55826 35-537 S305L/Y426V/L479M): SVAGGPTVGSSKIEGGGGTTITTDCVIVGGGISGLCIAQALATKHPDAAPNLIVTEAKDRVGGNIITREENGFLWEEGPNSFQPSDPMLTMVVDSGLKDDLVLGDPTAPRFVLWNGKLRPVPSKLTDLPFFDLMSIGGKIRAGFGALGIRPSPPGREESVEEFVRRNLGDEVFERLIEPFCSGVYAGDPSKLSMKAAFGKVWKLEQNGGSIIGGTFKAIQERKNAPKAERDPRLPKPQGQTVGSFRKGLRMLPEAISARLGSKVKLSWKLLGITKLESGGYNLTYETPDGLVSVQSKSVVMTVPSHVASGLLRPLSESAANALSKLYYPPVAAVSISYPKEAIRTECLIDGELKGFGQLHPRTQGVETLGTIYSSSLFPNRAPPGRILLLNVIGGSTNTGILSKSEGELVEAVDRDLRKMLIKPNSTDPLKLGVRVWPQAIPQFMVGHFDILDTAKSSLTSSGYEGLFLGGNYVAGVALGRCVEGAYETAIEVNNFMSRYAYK

[2] = biological target: T2, AtPPO1 S305L Y426M (SEQ ID NO.124) (Arabidopsis thaliana, UniProt P55826, S305L/Y426M); assay: as above; format: biochemical; details: read-out: percentage inhibition
T2 construct: made in house; host or cells: E. coli BL21 (DE3) hemG, crude extract
T2 sequence (P55826 35-537 S305L/Y426M): T1 sequence (P55826 35-537 S305L/Y426V/L479M) with V392M, M445L

How did the inhibition at 0.1 ppm [1] turn out when `CCOC(=O)[C@]1(C)CC(c2cc(-n3c(=O)n(C)c(=S)n(C)c3=O)c(F)cc2Cl)=NO1` [Herbicide D, ethyl (5S)-3-[2-chloro-5-(3,5-dimethyl-2,6-dioxo-4-thioxo-1,3,5-triazinan-1-yl)-4-fluoro-phenyl]-5-methyl-4H-isoxazole-5-carboxylate] was run?
The inhibition at 0.1 ppm was 4%.

What about the inhibition at 1 ppm [1] of the same compound?
Its inhibition at 1 ppm is 46%.

And the inhibition at 10 ppm [1]?
The inhibition at 10 ppm was 76%.

What about the inhibition at 100 ppm [1] of the same compound?
Its inhibition at 100 ppm is 97%.

What about the inhibition at 0.1 ppm [2] of the same compound?
The inhibition at 0.1 ppm was 53%.

What about the inhibition at 1 ppm [2] of the same compound?
Its inhibition at 1 ppm is 85%.

What about the inhibition at 10 ppm [2] of the same compound?
The inhibition at 10 ppm was 100%.

What about the inhibition at 100 ppm [2] of the same compound?
Its inhibition at 100 ppm is 100%.

What does the source list for `CCOC(=O)C1(C)CC(c2cc(-n3c(=O)cc(C(F)(F)F)n(C)c3=O)c(F)cc2Cl)=NO1` (stereo not shown) [Herbicide C, 3-(2-chloro-4-fluoro-5-(3-methyl-2,6-dioxo-4-trifluoromethyl-3,6-dihydropyrimidin-1(2H)-yl)phenyl)-5-methyl-4,5-dihydroisoxazole-5-carboxylic acid ethyl ester]?
inhibition at 0.1 ppm [1]: 28%; inhibition at 1 ppm [1]: 59%; inhibition at 10 ppm [1]: 90%; inhibition at 100 ppm [1]: 100%; inhibition at 0.1 ppm [2]: 77%; inhibition at 1 ppm [2]: 88%; inhibition at 10 ppm [2]: 100%; inhibition at 100 ppm [2]: 100%

What does the source list for `C#CCN1C(=O)C(F)(F)Oc2cc(F)c(-n3c(=O)n(C)c(=S)n(C)c3=O)cc21` [Herbicide B, trifludimoxazin]?
inhibition at 0.1 ppm [1]: 99%; inhibition at 1 ppm [1]: 96%; inhibition at 10 ppm [1]: 100%; inhibition at 100 ppm [1]: 100%; inhibition at 0.1 ppm [2]: 100%; inhibition at 1 ppm [2]: 100%; inhibition at 10 ppm [2]: 100%; inhibition at 100 ppm [2]: 100%

With `CC(C)N(C)S(=O)(=O)NC(=O)c1cc(-n2c(=O)cc(C(F)(F)F)n(C)c2=O)c(F)cc1Cl` [Herbicide E, saflufenacil] as the compound, how does the inhibition at 0.1 ppm [1] read?
The inhibition at 0.1 ppm was 0%.

And the inhibition at 1 ppm [1]?
Its inhibition at 1 ppm is 28%.

What about the inhibition at 10 ppm [1] of the same compound?
The inhibition at 10 ppm was 70%.

What about the inhibition at 100 ppm [1] of the same compound?
The inhibition at 100 ppm was 87%.

What about the inhibition at 0.1 ppm [2] of the same compound?
The inhibition at 0.1 ppm was 38%.

What about the inhibition at 1 ppm [2] of the same compound?
The inhibition at 1 ppm was 78%.

And the inhibition at 10 ppm [2]?
Its inhibition at 10 ppm is 100%.

And the inhibition at 100 ppm [2]?
The inhibition at 100 ppm was 96%.

Which inhibition at 0.1 ppm [1] does the source give for `CCOC(=O)COc1ncccc1Oc1cc(-n2c(=O)cc(C(F)(F)F)n(C)c2=O)c(F)cc1Cl` [Herbicide A, epyrifenacil] here?
The inhibition at 0.1 ppm was 0%.

What about the inhibition at 1 ppm [1] of the same compound?
Its inhibition at 1 ppm is 52%.

What about the inhibition at 10 ppm [1] of the same compound?
The inhibition at 10 ppm was 87%.

What about the inhibition at 100 ppm [1] of the same compound?
The inhibition at 100 ppm was 100%.

And the inhibition at 0.1 ppm [2]?
Its inhibition at 0.1 ppm is 34%.

And the inhibition at 1 ppm [2]?
The inhibition at 1 ppm was 82%.

What about the inhibition at 10 ppm [2] of the same compound?
The inhibition at 10 ppm was 100%.

And the inhibition at 100 ppm [2]?
Its inhibition at 100 ppm is 100%.
